Where two headings read alike, the source gives them in different places. Ends that are not written are not given here. * marks the point of attachment. Biotin = O=C1N[C@H]2[C@H](CS[C@H]2CCCCC(=O)*)N1
Columns and labels:
[1] = Solubilisation of compounds; assay type: physicochemical; conditions: water
Description: Each peptide is resuspended in the preferred solvent to a concentration of 1 mg per ml. This stock solution is dispensed in 500 μl volume aliquots in 1 ml bottles, labelled and stored at −85° C. or, less preferably, at −20° C.

[2] = test system: sera from sheep free of infection with C. abortus
Description: In the Applicant's experience at least two different forms of microtitration plates may be used. One form uses tresyl-activated dextran, which is applied to the polystyrene plate and forms a layer between the plate and the peptide (Gregorius et al., 1995). The commercially available plates (‘Aquabind™’) are produced by M&E, Denmark and marketed in the UK through Labsystems by Life Sciences. […] The second form of plate is one modified by coating with streptavidin. Such plates are commercially available e.g. Labsystems, Pierce and Warriner. […] The preferred microtitration plate types used to bind streptavidin are those modified to provide high protein binding e.g. Dynex Immulon 2, Greiner High Bind. To each well is added streptavidin in 150 μl volumes. The plates are incubated, preferably for 2 hours at 35-37° C., then the contents ejected and the plates washed 3 times with PBS buffer, pH 7.4 (Appendix). The plates are thoroughly dried and stored at 4° C. until required. Application of the peptide mixture is performed as follows:
The stock solutions (1 mg per ml) of the selected peptides are diluted in the same volume of carbonate-bicarbonate buffer, pH 9.6, to their optimum concentration. […] The peptide mixture solution is added in volumes of 150 μl per well. In a ‘controlled’ test, the peptide mixture is added to all wells in even numbered columns, while carbonate-bicarbonate buffer is added to all wells in odd-numbered columns in the same volume per well. In ‘screen’ tests, where control wells are not used for each sample, the peptide mixture is added to all 96 wells on the plate. The plates are incubated, preferably at 4° C. for 4 to 12 hours, then washed 4 times with PBS/Tween buffer (Appendix) and thoroughly dried, preferably for 4 hours in a fan-driven cabinet. The coated plates are placed in watertight bags with a desiccant, and the bags sealed and stored at 4° C. until required.
Two dilutions of standard serum are used. One, employed at a dilution of 1 in 1000, is used to indicate successful performance of the test (‘standard positive’). […] In the kits, the positive and cut-off standards are provided pre-diluted to working strength in a proprietary stabilisation buffer (Dako) which contains a preservative (ProClin 300; Supelco; used at 1 in 2000), and are not diluted further before addition to the test plate.
The test serum samples are diluted 1:100 in Serum Conjugate Diluent (Appendix). The test kits provide a Diluter plate, which has very low protein binding properties. By adding 15 μl of serum to 135 μl of Serum Conjugate Diluent on the Diluter plate, an initial 1 in 10 dilution is achieved. Transfer of 15 μl from the Diluter plate to 135 μl of Serum Conjugate Diluent dispensed into each well in the test plate enables a further dilution to 1 in 100 (from the original sample) on the test plate. […] Dilution of sera can also be performed, if preferred, in bijoux or tubes before their addition in 150 μl volumes to the Test plate.
Test and standard sera are incubated on the Test plate for 15 min at room temperature (˜20° C.), then 30 min at 37° C. Plate contents are then ejected and the plate washed 4 times with PBS/Tween (Appendix) and dried.
A probe to detect the presence of immunoglobulin, to which is conjugated an enzyme (the ‘conjugate’), is then added. Preferably, the probe constitutes Protein G (recombinant form, in which the moiety that binds to albumin has been eliminated; available from Sigma and Calbiochem) conjugated with horse radish peroxidase, but many forms of conjugate are available. These include, as probes, Protein A; and monoclonal or polyclonal antibodies against the immunoglobulins of the species providing the test sample.

antibodies to C. abortus = assay: ELISA, serological reactivity of biotinylated peptides against serum dilutions (Tables 1 and 2); assay type: binding, sheep
Description: Application of the peptide mixture is performed as follows:
Two dilutions of standard serum are used.
The data illustrate that the length of compound has a major impact on serological reactivity.
Thus, substitutions within the core epitopes described in this invention are possible without too much loss in compound serological reactivity.

[3] = PS (Positive Control Serum) 1/1000
[4] = PS (Positive Control Serum) 1/15000
[5] = serum of Animal No. 14, sheep free of infection with C. abortus
[6] = serum of Animal No. 13, sheep free of infection with C. abortus
[7] = serum of Animal No. 28, sheep free of infection with C. abortus
[8] = serum of Animal No. 36, sheep free of infection with C. abortus
[9] = serum of Animal No. 19, sheep free of infection with C. abortus
[10] = serum of Animal No. 31, sheep free of infection with C. abortus
[11] = serum of Animal No. 37, sheep free of infection with C. abortus

## GKGSSIAADQNKGSSIAADQ [Compound #2]
[1]
  solubility: soluble in water

## SGTAAANYKTKGTAAANYKT [Compound #1]
[1]
  solubility: soluble in water

## Biotin-KTITGMGAVPTGTAAANYKT [Compound 1/AX]
[2]; [3]
  Net OD [Gross OD - No compound OD]: 3.690
[2]; [4]
  Net OD [Gross OD - No compound OD]: 0.493
[2]; [5]
  Net OD [Gross OD - No compound OD]: 0.511

## Biotin-KASSAAFNLVGLIVKGSSIAADQ [Compound 2/L]
Antibodies to C. abortus; serum dilution 1/100
  Net Optical Density: 2.629
Antibodies to C. abortus; serum dilution 1/200
  Net Optical Density: 1.885
Antibodies to C. abortus; serum dilution 1/400
  Net Optical Density: 1.107
Antibodies to C. abortus; serum dilution 1/800
  Net Optical Density: 0.544
Antibodies to C. abortus; serum dilution 1/1600
  Net Optical Density: 0.263
Antibodies to C. abortus; serum dilution 1/3200
  Net Optical Density: 0.115
Antibodies to C. abortus; serum dilution 1/6400
  Net Optical Density: 0.056
[2]; [3]
  Net OD [Gross OD - No compound OD]: 1.534
[2]; [4]
  Net OD [Gross OD - No compound OD]: 0.098
[2]; serum of Animal No. 5, sheep free of infection with C. abortus
  Net OD [Gross OD - No compound OD]: 0.285
[2]; [6]
  Net OD [Gross OD - No compound OD]: 0.572
[2]; [7]
  Net OD [Gross OD - No compound OD]: 0.389
[2]; [8]
  Net OD [Gross OD - No compound OD]: 0.128

## Biotin-KKKKKKKGVKGSSIAADQLPN [Compound 2-7]
[2]; [3]
  Net OD [Gross OD - No compound OD]: 1.038
[2]; [4]
  Net OD [Gross OD - No compound OD]: 0.059
[2]; serum of Animal No. 11, sheep free of infection with C. abortus
  Net OD [Gross OD - No compound OD]: 0.607
[2]; [6]
  Net OD [Gross OD - No compound OD]: 0.198
[2]; [9]
  Net OD [Gross OD - No compound OD]: 0.119
[2]; serum of Animal No. 29, sheep free of infection with C. abortus
  Net OD [Gross OD - No compound OD]: 0.144

## Biotin-KTITGKKVPTGTAAANYKTPT [Compound 1-5]
[2]; [3]
  Net OD [Gross OD - No compound OD]: 3.744
[2]; [4]
  Net OD [Gross OD - No compound OD]: 0.452
[2]; [5]
  Net OD [Gross OD - No compound OD]: 0.978
[2]; [9]
  Net OD [Gross OD - No compound OD]: 0.747
[2]; [7]
  Net OD [Gross OD - No compound OD]: 0.352
[2]; [10]
  Net OD [Gross OD - No compound OD]: 0.423
[2]; [11]
  Net OD [Gross OD - No compound OD]: 0.580

## Biotin-KTITGKKKKGTAAANYKTPTD [Compound 1-6]
[2]; [3]
  Net OD [Gross OD - No compound OD]: 3.352
[2]; [4]
  Net OD [Gross OD - No compound OD]: 0.354
[2]; [9]
  Net OD [Gross OD - No compound OD]: 1.316
[2]; [7]
  Net OD [Gross OD - No compound OD]: 0.114
[2]; [10]
  Net OD [Gross OD - No compound OD]: 0.636
[2]; [8]
  Net OD [Gross OD - No compound OD]: 0.500
[2]; [11]
  Net OD [Gross OD - No compound OD]: 0.344

From US20030186887A1, “Compounds for detection of infection by chlamydophila abortus” (priority 2000, published 2003)
